Like-named read-outs stand apart in the source and are kept apart here.
Test: Example 11: plasma pharmacokinetics (toxicokinetics) of tozadenant in mice after twice daily oral administration
Assay type: in vivo, Crl:CD1(ICR) mice
Parameters: Cmax/D / AUC0-24/D: unit not given beside the values
Settings: for AUC(0-t) / AUC / Cmax / Tmax / AUC(0-inf) / half-life: Crl:CD1(ICR), mouse, plasma
Experimental: The plasma pharmacokinetics and exposure levels of tozadendant have been documented in mice after oral administration, the same route of administration as tozadenant was dosed in the oncology efficacy studies.
The PK of tozadenant in mice was compared across a range of doses and dose frequencies. […]
Groups of mice of the Crl:CD1(ICR) strain were dosed, as follows:
The vehicle for the tozadenant in this mouse PK study was 1.6% (w/v) Avicel RC-591 (FMC), 0.2% (v/v) Tween 80, 0.18% (w/v) methylparaben and 0.02% (w/v) propylparaben in reverse osmosis water, pH 6.0±0.3. The 1.6% (w/v) Avicel RC-591 (FMC) was supplied by Biopolymer International, Brussels, Belgium. The 0.2% (v/v) Tween 80, 0.18% (w/v) methylparaben and 0.02% (w/v) propylparaben in reverse osmosis water, pH 6.0±0.3 was supplied by and Sigma-Aldrich Co Ltd, Poole, UK. This is the same formulation used for the mouse oncology model oral dosing.
The test article was administered orally by gavage, as follows:
Groups 1 to 4: Twice for one day (0 and 8 hours apart relative to initial dose)
Group 5: Twice for one day (0 and 12 hours apart relative to initial dose)
Blood samples for toxicokinetics (0.25 mL nominal) were taken from all toxicokinetic animals (subgroup 2), as follows:
For animals dosed at 0, 8 or 12 hour intervals, sampling time with respect to dose was symmetrical in each animal, for example, if an animal was sampled 0.5 hours after the first dose, it was sampled 0.5 hours after the second dose. The second sample obtained from each animal was collected under terminal anaesthesia.
Samples were taken from the orbital sinus (with the exception of Group 3 animals at the 10 hour bleed, which were taken by cardiac puncture) under isoflurane anaesthesia into K2EDTA. Samples were gently inverted to ensure mixing with anticoagulant, placed on a blood roller for at least one minute and then placed in a Kryorack until centrifugation.
Centrifugation was carried out at approximately 4-8° C. within one hour of collection. The resultant plasma from all samples was separated, transferred to uniquely labelled clear polypropylene tubes and frozen immediately at approximately <−10 to −30° C. Samples were analyzed at Covance.
Tozadenant was quantitated using protein precipitation followed by liquid chromatography mass spectrometry technique for quantification. This bioanalytical method was previously established and validated for tozadenant in mouse plasma.

[1] = Group 1, Male, 100 mg/kg/day (50 mg/kg/dose), oral, dosing at 0, 8 hr
[2] = Group 2, Male, 300 mg/kg/day (150 mg/kg/dose), oral, dosing at 0, 8 hr
[3] = Group 3, Male, 1000 mg/kg/day (500 mg/kg/dose), oral, dosing at 0, 8 hr
[4] = Group 4, 2000 mg/kg/day, dosing at 0, 8 hr
[5] = Group 4, Female, 2000 mg/kg/day (1000 mg/kg/dose), oral, dosing at 0, 8 hr
[6] = Group 4, Male, 2000 mg/kg/day (1000 mg/kg/dose), oral, dosing at 0, 8 hr
[7] = Group 5, 2000 mg/kg/day, dosing at 0, 12 hr
[8] = Group 5, Female, 2000 mg/kg/day (1000 mg/kg/dose), oral, dosing at 0, 12 hr
[9] = Group 5, Male, 2000 mg/kg/day (1000 mg/kg/dose), oral, dosing at 0, 12 hr

COc1ccc(N2CCOCC2)c2sc(NC(=O)N3CCC(C)(O)CC3)nc12 [SYN-115, 4-hydroxy-4-methyl-piperidine-1-carboxylic acid (4-methoxy-7-morpholin-4-yl-benzothiazol-2-yl)-amide]
AUC0-24/D [1]: 35.2 | Cmax/D [1]: 7.64 | AUC0-24/D [2]: 33.0 | Cmax/D [2]: 5.73 | AUC0-24/D [3]: 29.9 | Cmax/D [3]: 3.61 | Female:Male Ratio AUC0-24 [4]: 2.70 | Female:Male Ratio Cmax [4]: 2.38 | AUC0-24/D [5]: 58.0 | Cmax/D [5]: 6.05 | AUC0-24/D [6]: 21.5 | Cmax/D [6]: 2.54 | Female:Male Ratio AUC0-24 [7]: 2.02 | Female:Male Ratio Cmax [7]: 1.28 | AUC0-24/D [8]: 31.4 | Cmax/D [8]: 4.12 | AUC0-24/D [9]: 15.6 | Cmax/D [9]: 3.22 | AUC(0-t) (female, po, 2000 mg/kg/day, Group 4, Female, 2000 mg/kg/day (1000 mg/kg/dose), oral, dosing at 0, 8 hr, read-out: AUC0-8): 35400 ng·h/mL | AUC(0-t) (female, po, 2000 mg/kg/day, Group 4, Female, 2000 mg/kg/day (1000 mg/kg/dose), oral, dosing at 0, 8 hr, read-out: AUC0-24): 116000 ng·h/mL | AUC (female, po, 2000 mg/kg/day, Group 4, Female, 2000 mg/kg/day (1000 mg/kg/dose), oral, dosing at 0, 8 hr, read-out: AUC8-24): 80600 ng·h/mL | Cmax (female, po, 2000 mg/kg/day, Group 4, Female, 2000 mg/kg/day (1000 mg/kg/dose), oral, dosing at 0, 8 hr, read-out: Cmax): 12100 ng/mL | Tmax (female, po, 2000 mg/kg/day, Group 4, Female, 2000 mg/kg/day (1000 mg/kg/dose), oral, dosing at 0, 8 hr, read-out: Tmax): 14 h | AUC(0-t) (female, po, 2000 mg/kg/day, Group 5, Female, 2000 mg/kg/day (1000 mg/kg/dose), oral, dosing at 0, 12 hr, read-out: AUC0-12): 35500 ng·h/mL | AUC(0-t) (female, po, 2000 mg/kg/day, Group 5, Female, 2000 mg/kg/day (1000 mg/kg/dose), oral, dosing at 0, 12 hr, read-out: AUC0-24): 62700 ng·h/mL | AUC (female, po, 2000 mg/kg/day, Group 5, Female, 2000 mg/kg/day (1000 mg/kg/dose), oral, dosing at 0, 12 hr, read-out: AUC12-24): 27200 ng·h/mL | Cmax (female, po, 2000 mg/kg/day, Group 5, Female, 2000 mg/kg/day (1000 mg/kg/dose), oral, dosing at 0, 12 hr, read-out: Cmax): 8240 ng/mL | Tmax (female, po, 2000 mg/kg/day, Group 5, Female, 2000 mg/kg/day (1000 mg/kg/dose), oral, dosing at 0, 12 hr, read-out: Tmax): 1.2 h | Tmax (female, po, 2000 mg/kg/day, females, 0, 12 hour dosing, read-out: Tmax (following the first dose)): 1.2 h | Tmax (female, po, 2000 mg/kg/day, females, 2000 mg/kg/day, 0, 8 hours dosing, read-out: Tmax (after the second dose)): 6 h | AUC (male, oral, 100 mg/kg/day, mice, 100 mg/kg/day, read-out: Average AUC): 3520 ng·h/mL | AUC(0-t) (male, po, 100 mg/kg/day, Group 1, Male, 100 mg/kg/day (50 mg/kg/dose), oral, dosing at 0, 8 hr, read-out: AUC0-8): 1950 ng·h/mL | AUC(0-t) (male, po, 100 mg/kg/day, Group 1, Male, 100 mg/kg/day (50 mg/kg/dose), oral, dosing at 0, 8 hr, read-out: AUC0-24): 3520 ng·h/mL | AUC (male, po, 100 mg/kg/day, Group 1, Male, 100 mg/kg/day (50 mg/kg/dose), oral, dosing at 0, 8 hr, read-out: AUC8-24): 1570 ng·h/mL | Cmax (male, po, 100 mg/kg/day, Group 1, Male, 100 mg/kg/day (50 mg/kg/dose), oral, dosing at 0, 8 hr, read-out: Cmax): 764 ng/mL | Tmax (male, po, 100 mg/kg/day, Group 1, Male, 100 mg/kg/day (50 mg/kg/dose), oral, dosing at 0, 8 hr, read-out: Tmax): 9 h | Tmax (male, po, 100 mg/kg/day, mice, 100 mg/kg/day (50 mg/kg/dose×2) oral, 1 hour after the second dose, read-out: Average Tmax): 9 h | Cmax (male, po, 100 mg/kg/day, mice, 100 mg/kg/day (50 mg/kg/dose×2) oral, read-out: Average Cmax): 764 ng/mL | AUC(0-t) (male, po, 100 mg/kg/day, mice, 100 mg/kg/day (50 mg/kg/dose×2) oral, read-out: Average daily AUC0-24): 3520 ng·h/mL | AUC(0-inf) (male, po, 300 mg/kg/day, Group 2, Male, 300 mg/kg/day (150 mg/kg/dose), oral, dosing at 0, 8 hr): 9930 ng·h/mL | AUC(0-t) (male, po, 300 mg/kg/day, Group 2, Male, 300 mg/kg/day (150 mg/kg/dose), oral, dosing at 0, 8 hr, read-out: AUC0-8): 5030 ng·h/mL | AUC(0-t) (male, po, 300 mg/kg/day, Group 2, Male, 300 mg/kg/day (150 mg/kg/dose), oral, dosing at 0, 8 hr, read-out: AUC0-24): 9900 ng·h/mL | AUC (male, po, 300 mg/kg/day, Group 2, Male, 300 mg/kg/day (150 mg/kg/dose), oral, dosing at 0, 8 hr, read-out: AUC8-24): 4870 ng·h/mL | Cmax (male, po, 300 mg/kg/day, Group 2, Male, 300 mg/kg/day (150 mg/kg/dose), oral, dosing at 0, 8 hr, read-out: Cmax): 1720 ng/mL | Tmax (male, po, 300 mg/kg/day, Group 2, Male, 300 mg/kg/day (150 mg/kg/dose), oral, dosing at 0, 8 hr, read-out: Tmax): 8.8 h | half-life (male, po, 300 mg/kg/day, Group 2, Male, 300 mg/kg/day (150 mg/kg/dose), oral, dosing at 0, 8 hr, read-out: t1/2 (converted)): 0.971 h | AUC(0-t) (male, po, 1000 mg/kg/day, Group 3, Male, 1000 mg/kg/day (500 mg/kg/dose), oral, dosing at 0, 8 hr, read-out: AUC0-8): 13800 ng·h/mL | AUC(0-t) (male, po, 1000 mg/kg/day, Group 3, Male, 1000 mg/kg/day (500 mg/kg/dose), oral, dosing at 0, 8 hr, read-out: AUC0-24): 29900 ng·h/mL | AUC (male, po, 1000 mg/kg/day, Group 3, Male, 1000 mg/kg/day (500 mg/kg/dose), oral, dosing at 0, 8 hr, read-out: AUC8-24): 16100 ng·h/mL | Cmax (male, po, 1000 mg/kg/day, Group 3, Male, 1000 mg/kg/day (500 mg/kg/dose), oral, dosing at 0, 8 hr, read-out: Cmax): 3610 ng/mL | Tmax (male, po, 1000 mg/kg/day, Group 3, Male, 1000 mg/kg/day (500 mg/kg/dose), oral, dosing at 0, 8 hr, read-out: Tmax): 10.2 h | Tmax (male, po, 2000 mg/kg/day, 0, 8 hours dosing, all groups except females at 2000 mg/kg/day, read-out: Tmax (post dose, following the second dose)): 0.8 to 2.2 h | AUC(0-inf) (male, po, 2000 mg/kg/day, Group 4, Male, 2000 mg/kg/day (1000 mg/kg/dose), oral, dosing at 0, 8 hr): 43100 ng·h/mL | AUC(0-t) (male, po, 2000 mg/kg/day, Group 4, Male, 2000 mg/kg/day (1000 mg/kg/dose), oral, dosing at 0, 8 hr, read-out: AUC0-8): 20500 ng·h/mL | AUC(0-t) (male, po, 2000 mg/kg/day, Group 4, Male, 2000 mg/kg/day (1000 mg/kg/dose), oral, dosing at 0, 8 hr, read-out: AUC0-24): 43000 ng·h/mL | AUC (male, po, 2000 mg/kg/day, Group 4, Male, 2000 mg/kg/day (1000 mg/kg/dose), oral, dosing at 0, 8 hr, read-out: AUC8-24): 22500 ng·h/mL | Cmax (male, po, 2000 mg/kg/day, Group 4, Male, 2000 mg/kg/day (1000 mg/kg/dose), oral, dosing at 0, 8 hr, read-out: Cmax): 5080 ng/mL | Tmax (male, po, 2000 mg/kg/day, Group 4, Male, 2000 mg/kg/day (1000 mg/kg/dose), oral, dosing at 0, 8 hr, read-out: Tmax): 9 h | half-life (male, po, 2000 mg/kg/day, Group 4, Male, 2000 mg/kg/day (1000 mg/kg/dose), oral, dosing at 0, 8 hr, read-out: t1/2 (converted)): 2.02 h | AUC(0-inf) (male, po, 2000 mg/kg/day, Group 5, Male, 2000 mg/kg/day (1000 mg/kg/dose), oral, dosing at 0, 12 hr): 31300 ng·h/mL | AUC(0-t) (male, po, 2000 mg/kg/day, Group 5, Male, 2000 mg/kg/day (1000 mg/kg/dose), oral, dosing at 0, 12 hr, read-out: AUC0-12): 17800 ng·h/mL | AUC(0-t) (male, po, 2000 mg/kg/day, Group 5, Male, 2000 mg/kg/day (1000 mg/kg/dose), oral, dosing at 0, 12 hr, read-out: AUC0-24): 31100 ng·h/mL | AUC (male, po, 2000 mg/kg/day, Group 5, Male, 2000 mg/kg/day (1000 mg/kg/dose), oral, dosing at 0, 12 hr, read-out: AUC12-24): 13300 ng·h/mL | Cmax (male, po, 2000 mg/kg/day, Group 5, Male, 2000 mg/kg/day (1000 mg/kg/dose), oral, dosing at 0, 12 hr, read-out: Cmax): 6440 ng/mL | Tmax (male, po, 2000 mg/kg/day, Group 5, Male, 2000 mg/kg/day (1000 mg/kg/dose), oral, dosing at 0, 12 hr, read-out: Tmax): 1.1 h | half-life (male, po, 2000 mg/kg/day, Group 5, Male, 2000 mg/kg/day (1000 mg/kg/dose), oral, dosing at 0, 12 hr, read-out: t1/2 (converted)): 1.36 h | Tmax (male, po, 2000 mg/kg/day, males, 0, 12 hour dosing, read-out: Tmax (following the first dose)): 1.1 h | half-life (male, po, mice, all dose levels where calculated, read-out: Half-lives): 1 to 2 h
